Measurements from PubChem BioAssay AID192 (DTP/NCI, 2004).
Several values for one entry are separate records, joined by “and”; a condition that tells them apart may be missing. Equal entries are not always repeated. Inconclusive results and toxic doses are left out. The calls were made as follows: active = survival T/C of 150% or more; inactive = T/C below 125% in these data.

Tested on: BDF1 mice, B16 melanoma ip, median survival T/C
Experiment: NCI In Vivo Anticancer Drug Screen. Data for tumor model B16 Melanoma (intraperitoneal) in B6D2F1 (BDF1) mice
Details: endpoint: median survival time, higher = longer survival
In short: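 The ratio T/C compares compound-treated mice with vehicle-treated controls, using survival or tumor size as the endpoint in a transplantable tumor model.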

[1] = dose: 0.78 mg/kg/injection, schedule: Q01DX009 (ip), vehicle: saline
[2] = dose: 1.56 mg/kg/injection, schedule: Q01DX009 (ip), vehicle: saline
[3] = dose: 3.12 mg/kg/injection, schedule: Q01DX009 (ip), vehicle: saline
[4] = dose: 12.5 mg/kg/injection, schedule: Q01DX009 (ip), vehicle: Klucel (hydroxypropylcellulose) (HPC)
[5] = dose: 100.0 mg/kg/injection, schedule: Q01DX009 (ip), vehicle: Klucel (hydroxypropylcellulose) (HPC)
[6] = dose: 200.0 mg/kg/injection, schedule: Q01DX009 (ip), vehicle: Klucel (hydroxypropylcellulose) (HPC)
[7] = dose: 400.0 mg/kg/injection, schedule: Q01DX009 (ip), vehicle: Klucel (hydroxypropylcellulose) (HPC)
[8] = dose: 25.0 mg/kg/injection, schedule: Q01DX009 (ip), vehicle: saline with Tween-80
[9] = dose: 50.0 mg/kg/injection, schedule: Q01DX009 (ip), vehicle: saline with Tween-80
[10] = dose: 100.0 mg/kg/injection, schedule: Q01DX009 (ip), vehicle: saline with Tween-80
[11] = dose: 100.0 mg/kg/injection, schedule: Q04DX003 (ip), vehicle: Klucel (hydroxypropylcellulose) (HPC)
[12] = dose: 200.0 mg/kg/injection, schedule: Q04DX003 (ip), vehicle: Klucel (hydroxypropylcellulose) (HPC)
[13] = dose: 400.0 mg/kg/injection, schedule: Q04DX003 (ip), vehicle: Klucel (hydroxypropylcellulose) (HPC)
[14] = dose: 0.75 mg/kg/injection, schedule: Q01DX009 (ip), vehicle: saline with Tween-80

Measured: T/C

CN(C)c1ccc(C(=O)c2ccc(N(C)C)cc2)cc1
inactive: dose: 100.0 mg/kg/injection, schedule: Q04DX003 (ip), vehicle: saline 104 % of control | dose: 200.0 mg/kg/injection, schedule: Q04DX003 (ip), vehicle: saline 111 % of control | dose: 400.0 mg/kg/injection, schedule: Q04DX003 (ip), vehicle: saline 100 % of control

COc1ccc(/C=N/n2c3ccccc3c3ccccc32)cc1OCCCN(C)C
inactive: dose: 0.39 mg/kg/injection, schedule: Q01DX009 (ip), vehicle: saline 120 % of control | [1] 102 % of control | [2] 112 % of control | [3] 105 % of control | dose: 6.25 mg/kg/injection, schedule: Q01DX009 (ip), vehicle: saline 105 % of control | [4] 97 % of control

CC(C)(C)CC(N)=O
inactive: dose: 50.0 mg/kg/injection, schedule: Q01DX009 (ip), vehicle: Klucel (hydroxypropylcellulose) (HPC) 112 % of control | [5] 100 % of control | dose: 100.0 mg/kg/injection, schedule: Q01DX009 (ip), vehicle: saline 107 % of control | [6] 105 % of control | dose: 200.0 mg/kg/injection, schedule: Q01DX009 (ip), vehicle: saline 123 % of control | [7] 105 % of control | dose: 400.0 mg/kg/injection, schedule: Q01DX009 (ip), vehicle: saline 107 % of control

CSc1nc2cc(C)c(C)cc2[nH]1
inactive: [8] 100 % of control | [9] 97 % of control | [10] 97 % of control and 102 % of control

CCN(CC)CCNCCN
inactive: dose: 12.5 mg/kg/injection, schedule: Q01DX009 (ip), vehicle: saline 94 % of control | dose: 25.0 mg/kg/injection, schedule: Q01DX009 (ip), vehicle: saline 97 % of control | dose: 50.0 mg/kg/injection, schedule: Q01DX009 (ip), vehicle: saline 94 % of control

CC(C)NNC(C)Cc1ccccc1 (stereo not drawn)
inactive: dose: 1.56 mg/kg/injection, schedule: Q01DX009 (ip), vehicle: Klucel (hydroxypropylcellulose) (HPC) 91 % of control | dose: 3.12 mg/kg/injection, schedule: Q01DX009 (ip), vehicle: Klucel (hydroxypropylcellulose) (HPC) 86 % of control | dose: 6.25 mg/kg/injection, schedule: Q01DX009 (ip), vehicle: Klucel (hydroxypropylcellulose) (HPC) 86 % of control | [4] 91 % of control | dose: 25.0 mg/kg/injection, schedule: Q01DX009 (ip), vehicle: Klucel (hydroxypropylcellulose) (HPC) 97 % of control

CCOC(=O)Nc1cccc2ccccc12
inactive: [11] 102 % of control | [12] 105 % of control | [13] 102 % of control

CC(=O)[O][Hg][c]1cc(-c2ccc(N=Nc3c(S(=O)(=O)O)cc4cccc(N)c4c3O)cc2)ccc1N=Nc1c(S(=O)(=O)O)cc2cccc(N)c2c1O
inactive: [14] 95 % of control | dose: 1.5 mg/kg/injection, schedule: Q01DX009 (ip), vehicle: saline with Tween-80 90 % of control | dose: 1.5 mg/kg/injection, schedule: Q04DX003 (ip), vehicle: saline with Tween-80 102 % of control | dose: 3.0 mg/kg/injection, schedule: Q04DX003 (ip), vehicle: saline with Tween-80 86 % of control

Cc1cc(=O)[nH]c(N/N=C/c2ccccc2)n1
inactive: dose: 100.0 mg/kg/injection, schedule: Q04DX003 (ip), vehicle: gum acacia 93 % of control | dose: 200.0 mg/kg/injection, schedule: Q04DX003 (ip), vehicle: gum acacia 88 % of control | dose: 400.0 mg/kg/injection, schedule: Q04DX003 (ip), vehicle: gum acacia 88 % of control

Cc1cc2nc(CO)[nH]c2cc1C
inactive: [5] 111 % of control | [11] 100 % of control | [12] 94 % of control | [13] 97 % of control

CC(COC(=O)c1ccccc1)(COC(=O)c1ccccc1)COC(=O)c1ccccc1
inactive: [5] 110 % of control | [6] 107 % of control | [7] 100 % of control

O=C(O)c1cccc2c(=O)c3ccccc3sc12
inactive: [5] 100 % of control | [6] 100 % of control | [7] 93 % of control

CCCCOCCN1CCN(CCCN2c3ccccc3Sc3ccc(C(F)(F)F)cc32)CC1
inactive: dose: 0.29 mg/kg/injection, schedule: Q04DX003 (ip), vehicle: saline 89 % of control | dose: 0.58 mg/kg/injection, schedule: Q04DX003 (ip), vehicle: saline 102 % of control | [1] 112 % of control | dose: 1.17 mg/kg/injection, schedule: Q04DX003 (ip), vehicle: saline 107 % of control | [2] 115 % of control | dose: 2.34 mg/kg/injection, schedule: Q04DX003 (ip), vehicle: saline 89 % of control | [3] 107 % of control

CCOC(=O)c1ccc(OC(=O)Nc2ccccc2)cc1
inactive: [8] 97 % of control | [9] 97 % of control | [10] 93 % of control and 95 % of control

COC1/C=C\C=C(/C)C(=O)NC2=CC(=O)C(N)=C(CC(C)CC(OC)C(O)C(C)C=C(C)C1OC(N)=O)C2=O (stereo not drawn)
inactive: [14] 117 % of control
